Experimental data published in patent publication US20240352022A1, “GROUP OF IMB-C5 SERIES COMPOUNDS HAVING ANTI-CORONAVIRUS ACTIVITY AND APPLICATION THEREOF” (priority 2021, published 2024).

Key:
[1] = test system: HCoV-229E; test: anti-HCoV-229E activity in Huh7 cells by cytopathic effect (CPE) assay; type: cell-based, Human coronavirus HCoV-229E; conditions: Human coronavirus 229E, Huh-7, HCoV-229E 100 TCID50 in Huh7 cells, about 48 h
[2] = in vitro; conditions: human
[3] = test system: HCoV-229E; test: anti-HCoV-229E activity in Huh7.5 cells by cytopathic effect (CPE) assay; type: cell-based, Human coronavirus HCoV-229E; conditions: Human coronavirus 229E, HCoV-229E 100 TCID50 in Huh7.5 cells, about 48 h
[4] = in vitro; conditions: human; remark: listed apart in the source

Row | Compound | EC50 [1] [µM] | CC50 [2] [µM] | EC50 [3] [µM] | CC50 [4] [µM]
1 | Cn1c(=O)c2c(nc(NCCO)n2Cc2ccc(F)cc2)n(C)c1=O [IMB-2-2, 7-(4-fluorobenzyl)-8-((2-hydroxyethyl)amino)-1,3-dimethyl-3,7-dihydro-1H-purine-2,6-dione] | 3.15 | > 200 |  | 
2 | COc1cccc(Cn2c(NCCO)nc3c2c(=O)n(Cc2ccc(F)cc2)c(=O)n3C)c1 [IMB-3-13, 1-(4-fluorobenzyl)-8-((2-hydroxyethyl)amino)-7-(3-methoxybenzyl)-3-methyl-3,7-dihydro-1H-purine-2,6-dione] | 17.2 | 46.2 |  | 
3 | CC(C)C(=O)OC[C@H]1O[C@@H](n2ccc(NO)nc2=O)[C@H](O)[C@@H]1O [Molnupiravir, reference compound] | 1.92 | > 200 | 4.28 | > 200
4 | COc1cccc(Cn2c(NCCO)nc3c2c(=O)n(CC2CCOCC2)c(=O)n3C)c1 [IMB-3-6, 8-((2-hydroxyethyl)amino)-7-(3-methoxybenzyl)-3-methyl-1-((tetrahydro-2H-pyran-4-yl)methyl)-3,7-dihydro-1H-purine-2,6-dione] |  | > 200 |  | 
5 | COC(=O)CNc1nc2c(c(=O)n(C)c(=O)n2C)n1Cc1cccc(OC)c1 [IMB-ZHC-2, methyl(7-(3-methoxybenzyl)-1,3-dimethyl-2,6-dioxo-2,3,6,7-tetrahydro-1H-purin-8-yl)glycinate] | 28.7 | > 129 | 43.1 | > 129
6 | CCOC(=O)c1cccc(Cn2c(NCCO)nc3c2c(=O)n(C)c(=O)n3C)c1 [IMB-4-6, ethyl3-((8-((2-hydroxyethyl)amino)-1,3-dimethyl-2,6-dioxo-1,2,3,6-tetrahydro-7H-purin-7-yl)methyl)benzoate] | 2.47 | 200 |  | 
7 | Cn1c(=O)c2c(nc(NCCO)n2Cc2ccc(OC(F)(F)F)cc2)n(C)c1=O [IMB-2-3, 8-((2-hydroxyethyl)amino)-1,3-dimethyl-7-(4-(trifluoromethoxy)benzyl)-3,7-dihydro-1H-purine-2,6-dione] | 11.4 | > 242 | 4.79 | > 242
8 | NC(=O)c1ncn([C@@H]2O[C@H](CO)[C@@H](O)[C@H]2O)n1 [RBV, Ribavirin, reference compound] | 26.2 |  | 16.7 | 
9 | Cn1c(=O)c2c(nc(NCCO)n2Cc2cccc(F)c2)n(C)c1=O [IMB-80, 7-(3-fluorobenzyl)-8-((2-hydroxyethyl)amino)-1,3-dimethyl-3,7-dihydro-1H-purine-2,6-dione] | 10.7 | > 288 | 14 | > 288
10 | CCn1c(=O)c2c(nc(Br)n2Cc2cccc(OC)c2)n(C)c1=O [IMB-3-30, 8-bromo-1-ethyl-7-(3-methoxybenzyl)-3-methyl-3,7-dihydro-1H-purine-2,6-dione] | 4.28 | 155 |  | 
11 | CCCn1c(=O)c2c(nc(NCCO)n2Cc2cccc(OC)c2)n(C)c1=O [IMB-3-47, 8-((2-hydroxyethyl)amino)-7-(3-methoxybenzyl)-3-methyl-1-propyl-3,7-dihydro-1H-purine-2,6-dione] | 85.9 | > 200 |  | 
12 | COC(=O)c1ccc2c(ccn2-c2nc3c(c(=O)n(C)c(=O)n3C)n2Cc2cccc(OC)c2)c1 [IMB-2-32, Methyl-1-(7-(3-methoxybenzyl)-1,3-dimethyl-2,6-dioxo-2,3,6,7-tetrahydro-1H-purin-8-yl)-1H-indole-5-carboxylate] | 5.75 | 51.7 |  | 
13 | Cn1c(=O)c2c(nc(NCCO)n2Cc2ccccc2Br)n(C)c1=O [IMB-2-6, 7-(2-bromobenzyl)-8-((2-hydroxyethyl)amino)-1,3-dimethyl-3,7-dihydro-1H-purine-2,6-dione] | 12.8 | > 200 |  | 
14 | COc1cccc(Cn2c(N3CCN(c4ccc(F)cc4)CC3)nc3c2c(=O)n(C)c(=O)n3C)c1 [IMB-2-31, 8-(4-(4-fluorophenyl)piperazin-1-yl)-7-(3-methoxybenzyl)-1,3-dimethyl-3,7-dihydro-1H-purine-2,6-dione] | 38.5 | > 200 |  | 
15 | COc1ccc(Cn2c(=O)c3c(nc(NCCO)n3Cc3cccc(OC)c3)n(C)c2=O)cc1 [IMB-3-15, 8-((2-hydroxyethyl)amino)-7-(3-methoxybenzyl)-1-(4-methoxybenzyl)-3-methyl-3,7-dihydro-1H-purine-2,6-dione] | 17.2 | > 200 |  | 
16 | C#CCCn1c(=O)c2c(nc(NCCO)n2Cc2cccc(OC)c2)n(C)c1=O [IMB-3-45, 1-(but-3-yn-1-yl)-8-((2-hydroxyethyl)amino)-7-(3-methoxybenzyl)-3-methyl-3,7-dihydro-1H-purine-2,6-dione] | 66.7 | > 200 |  | 
17 | Cn1c(=O)c2c(nc(NCCO)n2Cc2cccc(F)c2F)n(C)c1=O [IMB-82, 7-(2,3-difluorobenzyl)-8-((2-hydroxyethyl)amino)-1,3-dimethyl-3,7-dihydro-1H-purine-2,6-dione] | 30.4 | > 274 | 69.3 | > 274

Row | Compound | EC50 [1] [µM] | CC50 [2] [µM] | EC50 [3] [µM] | CC50 [4] [µM]
18 | COc1cccc(Cn2c(NCCO)nc3c2c(=O)n(CCNC(=O)OC(C)(C)C)c(=O)n3C)c1 [IMB-3-57, tert-butyl(2-(8-((2-hydroxyethyl)amino)-7-(3-methoxybenzyl)-3-methyl-2,6-dioxo-2,3,6,7-tetrahydro-1H-purin-1-yl)ethyl)carbamate] | 66.7 | > 200 |  | 
19 | COc1cccc(Cn2c(NCCO)nc3c2c(=O)n(Cc2ccncc2)c(=O)n3C)c1 [IMB-3-16, 8-((2-hydroxyethyl)amino)-7-(3-methoxybenzyl)-3-methyl-1-(pyridin-4-ylmethyl)-3,7-dihydro-1H-purine-2,6-dione] | 22.2 | 115 |  | 
20 | COc1ccc(Cn2c(NCCO)nc3c2c(=O)n(C)c(=O)n3C)cc1 [IMB-88] | 16.5 | > 278 | 23.5 | > 278
21 | Cn1c(=O)c2c(nc(NCCO)n2Cc2ccc(F)cc2F)n(C)c1=O [IMB-83, 7-(2,4-difluorobenzyl)-8-((2-hydroxyethyl)amino)-1,3-dimethyl-3,7-dihydro-1H-purine-2,6-dione] | 3.15 | > 200 |  | 
22 | COc1cccc(Cn2c(N[C@@H](C)CO)nc3c2c(=O)n(C)c(=O)n3C)c1 [IMB-ZH-2, (S)-8-((1-hydroxypropan-2-yl)amino)-7-(3-methoxybenzyl)-1,3-dimethyl-3,7-dihydro-1H-purine-2,6-dione] | 44.7 | > 134 | 82.9 | > 134
23 | C=CCn1c(=O)c2c(nc(NCCO)n2Cc2cccc(OC)c2)n(C)c1=O [IMB-3-71, allyl-8-((2-hydroxyethyl)amino)-7-(3-methoxybenzyl)-3-methyl-3,7-dihydro-1H-purine-2,6-dione] | 38.5 | 115 |  | 
24 | COc1cccc(CCn2c(NCCO)nc3c2c(=O)n(C)c(=O)n3C)c1 [IMB-4-13, 8-((2-hydroxyethyl)amino)-7-(3-methoxyphenethyl)-1,3-dimethyl-3,7-dihydro-1H-purine-2,6-dione] | 15.4 | > 200 |  | 
25 | Cn1c(=O)c2c(nc(NCCO)n2Cc2cccc([N+](=O)[O-])c2)n(C)c1=O [IMB-79] | 17.2 | > 200 |  | 
26 | COc1cccc(Cn2c(NC[C@H](C)O)nc3c2c(=O)n(C)c(=O)n3C)c1 [IMB-ZHC-7, (S)-8-((2-hydroxypropyl)amino)-7-(3-methoxybenzyl)-1,3-dimethyl-3,7-dihydro-1H-purine-2,6-dione] | 19.2 | > 134 | 44.7 | > 134
27 | Cn1c(=O)c2c(nc(NCCO)n2Cc2ccccc2)n(C)c1=O [IMB-ZHB-13x, 7-benzyl-8-((2-hydroxyethyl)amino)-1,3-dimethyl-3,7-dihydro-1H-purine-2,6-dione] | 5.62 | > 152 | 38.5 | > 152
28 | CCn1c(=O)c2c(nc(NCCO)n2Cc2cccc(OC)c2)n(C)c1=O [IMB-3-46, ethyl-8-((2-hydroxyethyl)amino)-7-(3-methoxybenzyl)-3-methyl-3,7-dihydro-1H-purine-2,6-dione] | 155 | > 200 |  | 
29 | COc1cccc(Cn2c(NCCO)nc3c2c(=O)n(CCCNC(=O)OC(C)(C)C)c(=O)n3C)c1 [IMB-3-58, tert-butyl(3-(8-((2-hydroxyethyl)amino)-7-(3-methoxybenzyl)-3-methyl-2,6-dioxo-2,3,6,7-tetrahydro-1H-purin-1-yl)propyl)carbamate] | 66.7 | > 200 |  | 
30 | Cn1c(=O)c2c(nc(NCCO)n2Cc2ccsc2)n(C)c1=O [IMB-4-12, 8-((2-hydroxyethyl)amino)-1,3-dimethyl-7-(thiophen-3-ylmethyl)-3,7-dihydro-1H-purine-2,6-dione] | 3.99 | > 200 |  | 
31 | Cn1c(=O)c2c(nc(NCCO)n2Cc2cccc(Br)c2)n(C)c1=O [IMB-81, 7-(3-bromobenzyl)-8-((2-hydroxyethyl)amino)-1,3-dimethyl-3,7-dihydro-1H-purine-2,6-dione] | 2.47 | 124 |  | 
32 | C#CCn1c(=O)c2c(nc(NCCO)n2Cc2cccc(OC)c2)n(C)c1=O [IMB-3-72, 8-((2-hydroxyethyl)amino)-7-(3-methoxybenzyl)-3-methyl-1-(prop-2-yn-1-yl)-3,7-dihydro-1H-purine-2,6-dione] | 115 | > 200 |  | 
33 | COc1cccc(Cn2c(NCCO)nc3c2c(=O)n(C)c(=O)n3Cc2ccccc2)c1 [IMB-3-81, benzyl-8-((2-hydroxyethyl)amino)-7-(3-methoxybenzyl)-1-methyl-3,7-dihydro-1H-purine-2,6-dione] | 96.2 | > 200 |  | 
34 | COc1cccc(Cn2c(-n3ccnc3)nc3c2c(=O)n(C)c(=O)n3C)c1 [IMB-2-26, 8-(1H-imidazol-1-yl)-7-(3-methoxybenzyl)-1,3-dimethyl-3,7-dihydro-1H-purine-2,6-dione] | 38.5 | > 200 |  | 
